In publication PMC9097129, “C-terminal mini-PEGylation of a marine peptide N6 had potent antibacterial and anti-inflammatory properties against Escherichia coli and Salmonella strains in vitro and in vivo” (BMC Microbiology, 2022):

Legend:
S. pullorum CVCC533 [1] = assay: Time-killing curves; type: cell-based, Salmonella pullorum; conditions: 1 × MIC
Procedure: The sample (100 μL) was taken from each flask at 0, 0.5, 1, 2, 4, 6, 8, 10, 12, and 24 h, respectively and serially diluted for colony counting. The group untreated with peptides was a blank control. PMB and CIP were used as the positive control. Similarly, bacterial cells (1 × 10^5 CFU/mL) were incubated with 3/128, 1/32, 3/64, 1/16, 3/32, 1/8, 3/16, 1/4, 3/8, 1/2, 3/4, 1, 2, 3, and 4 × MIC N6 or N6-COOH-miniPEG. The sample was taken from each flask at 24 h and serially diluted for colony counting.

S. pullorum CVCC533 [2] = assay: Mouse peritonitis model, survival; type: in vivo, ICR mice
Procedure: (§1) Similarly, after the intraperitoneal injection with S. pullorum CVCC533 (5 × 10^7 CFU/mL, 0.2 mL), the mice were treated with N6 (8 and 10 μmol/kg), N6-COOH-miniPEG (8 and 10 μmol/kg) or CIP (0.8 and 1 μmol/kg) at 0.5 h, respectively. The mice injected with antibiotics or PBS served as the positive and blank control (CK), respectively. Survival of the mice was recorded daily for 7 d.

E. coli 0111:B4 LPS = assay: Endotoxemia mouse model, serum cytokines by ELISA; type: in vivo, mice; design: levels of TNF-α in sera: unit not given here; conditions: for Decrease of serum IL-1β level / Decrease of serum IL-6 level / Decrease of serum IL-10 level / Decrease of serum TNF-α level: LPS 10 mg/kg i.p., peptides 0.25 μmol/kg, PMB 10 μmol/kg, CIP 5 μmol/kg; for levels of IL-1β in sera / levels of TNF-α in sera: ELISA kit, mean of n = 3
Procedure: The mice (10 mice/group) were injected intraperitoneally with N6 and N6-COOH-miniPEG (0.25 μmol/kg), PMB (10 μmol/kg) or CIP (5 μmol/kg) 0.5 h after challenge with 10 mg/kg E. coli 0111:B4 LPS. Blood was collected in a heparin sodium tube at 2 or 8 h after LPS injection and incubated for 30 min at 37 °C and then overnight at 4 °C. After centrifugation at 3,000 rpm for 10 min at 4 °C, serum was collected from supernatant. The cytokine levels of TNF-α, IL-6, IL-1β and IL-10 in serum were detected by the Jiaxuan Biotech. Co. Ltd. (Beijing, China) using an ELISA. […]

S. pullorum CVCC533 [3] = assay: Bacterial translocation, bacterial loads in organs; type: in vivo, mice; design: bacteria counted in the organs of mice infected with S. pullorum: unit not given here
Procedure: (§2) The mice (10 mice/group) were challenged with E. coli CVCC195 (1 × 10^9 CFU/mL, 0.2 mL) or S. pullorum CVCC533 (5 × 10^7 CFU/mL, 0.2 mL) by intraperitoneal injection and treated with N6 (4 and 10 μmol/kg) or N6-COOH-miniPEG (4 and 10 μmol/kg). To evaluate bacterial loads in organs, the livers, spleens, kidneys and lungs were removed from the sacrificed mice at 24 h post treatment and homogenized in sterile PBS for E. coli CVCC195 colony counting; similarly, the livers, spleens, kidneys and lungs were removed from the sacrificed mice at 48 h after treatment and homogenized in sterile PBS for S. pullorum CVCC533 colony counting. The uninfected mice served as the blank control (CK); the infected mice treated with PBS were used as the negative control. The mice were sacrificed by neck dislocation under inhaled isoflurane anesthesia (RWD Life Science Co., LTD. Shenzhen, China).

S. pullorum CVCC533 [4] = assay: Organ injury, histopathology (HE); type: in vivo, mice; conditions: 48 h and 4 d post-treatment, peptides 10 μmol/kg, HE staining
Procedure: (§3) The mice were treated with N6 (4 and 10 μmol/kg) and N6-COOH-miniPEG (4 and 10 μmol/kg) after intraperitoneal injection of E. coli CVCC195 for 0.5 and 8 h or S. pullorum CVCC533 for 0.5 h as described above. Livers, spleens, kidneys and lungs were removed from the mice at 24 h and 5 d post-treatment after E. coli CVCC195 injection and at 48 h and 4 d post-treatment after S. pullorum CVCC533 injection, respectively, washed in PBS, fixed in 4% paraformaldehyde at 4 °C for 24 h, and stained with hematoxylin and eosin (HE) for histopathology analysis. Finally, the tissue samples were fixed and observed by the light microscope. The uninfected mice served as the blank control (CK); the infected mice being treated with PBS were used as the negative control.

E. coli CVCC195 [5] = assay: Mouse peritonitis model, survival; type: in vivo, ICR mice; design: survival of mice in E. coli lethal model: unit not given here
Procedure: To evaluate in vivo efficacy of N6 and N6-COOH-miniPEG, the 6-week-old female ICR mice, weight 20 ± 2 g (10 mice/group) were intraperitoneally injected with E. coli CVCC195 or S. pullorum CVCC533 at a concentration of absolute lethal dose (LD100). After the intraperitoneal injection with E. coli CVCC195 (1 × 10^9 CFU/mL, 0.2 mL), the mice were treated with N6 (2 and 4 μmol/kg), N6-COOH-miniPEG (2 and 4 μmol/kg) or PMB (0.125 and 0.25 μmol/kg) at 0.5 h and 8 h, respectively.
as §1

E. coli CVCC195 [6] = assay: Organ injury, histopathology (HE); type: in vivo, mice; conditions: 24 h and 5 d post-treatment, peptides 4 μmol/kg, HE staining
Procedure: as §3

E. coli CVCC195 [7] = assay: Bacterial translocation, bacterial loads in organs; type: in vivo, mice; design: unit not given here; conditions: mean of n = 3
Procedure: as §2

[8] = peptides 10 μmol/kg, CIP 1 μmol/kg, 48 h after treatment, versus untreated infected mice

`O=C(O)c1cn(C2CC2)c2cc(N3CCNCC3)c(F)cc2c1=O` [CIP] was tested, and the “Time to kill 99.9% of cells” value (S. pullorum CVCC533 [1]) was no more than 6 h, the “survival of mice in S. pullorum lethal model” value (S. pullorum CVCC533 [2]; 0.8 μmol/kg, day 0) was 100 and the “survival of mice in S. pullorum lethal model” value (S. pullorum CVCC533 [2]; 0.8 μmol/kg, day 1) was 100. For the same compound, the “survival of mice in S. pullorum lethal model” value (S. pullorum CVCC533 [2]; 0.8 μmol/kg, day 2) was 100, the “survival of mice in S. pullorum lethal model” value (S. pullorum CVCC533 [2]; 0.8 μmol/kg, day 3) was 100 and the “survival of mice in S. pullorum lethal model” value (S. pullorum CVCC533 [2]; 0.8 μmol/kg, day 4) was 83.3333. The “survival of mice in S. pullorum lethal model” value (S. pullorum CVCC533 [2]; 0.8 μmol/kg, day 5) was 83.3333, the “survival of mice in S. pullorum lethal model” value (S. pullorum CVCC533 [2]; 0.8 μmol/kg, day 6) was 83.3333 and the “survival of mice in S. pullorum lethal model” value (S. pullorum CVCC533 [2]; 0.8 μmol/kg, day 7) was 83.3333. The “Survival rate of mice” value (S. pullorum CVCC533 [2]; 1 μmol/kg i.p. at 0.5 h (legend of Fig. 6: 0.5 and 8 h), 7 d) was 100%, the “survival of mice in S. pullorum lethal model” value (S. pullorum CVCC533 [2]; 1 μmol/kg, day 0) was 100 and the “survival of mice in S. pullorum lethal model” value (S. pullorum CVCC533 [2]; 1 μmol/kg, day 1) was 100. The “survival of mice in S. pullorum lethal model” value (S. pullorum CVCC533 [2]; 1 μmol/kg, day 2) was 100, the “survival of mice in S. pullorum lethal model” value (S. pullorum CVCC533 [2]; 1 μmol/kg, day 3) was 100 and the “survival of mice in S. pullorum lethal model” value (S. pullorum CVCC533 [2]; 1 μmol/kg, day 4) was 100. For the same compound, the “survival of mice in S. pullorum lethal model” value (S. pullorum CVCC533 [2]; 1 μmol/kg, day 5) was 100, the “survival of mice in S. pullorum lethal model” value (S. pullorum CVCC533 [2]; 1 μmol/kg, day 6) was 100 and the “survival of mice in S. pullorum lethal model” value (S. pullorum CVCC533 [2]; 1 μmol/kg, day 7) was 100. For the same compound, the “Decrease of serum IL-1β level” value (E. coli 0111:B4 LPS; 2 h) was 9.13%, the “Decrease of serum IL-6 level” value (E. coli 0111:B4 LPS; 2 h) was 30.83% and the “Decrease of serum IL-10 level” value (E. coli 0111:B4 LPS; 2 h) was 15.33%. For the same compound, the “Decrease of serum TNF-α level” value (E. coli 0111:B4 LPS; 2 h) was 1.78%, the “levels of IL-1β in sera” value (E. coli 0111:B4 LPS; 2 h after treatment) was 87.9333 and the “levels of TNF-α in sera” value (E. coli 0111:B4 LPS; 2 h after treatment) was 153. The “Decrease of serum IL-1β level” value (E. coli 0111:B4 LPS; 8 h) was 0.07%, the “Decrease of serum IL-6 level” value (E. coli 0111:B4 LPS; 8 h) was -0.24% and the “Decrease of serum IL-10 level” value (E. coli 0111:B4 LPS; 8 h) was 0.13%. The “Decrease of serum TNF-α level” value (E. coli 0111:B4 LPS; 8 h) was -0.37%, the “levels of IL-1β in sera” value (E. coli 0111:B4 LPS; 8 h after treatment) was 171.167 and the “levels of TNF-α in sera” value (E. coli 0111:B4 LPS; 8 h after treatment) was 559.733. The “bacteria counted in the organs of mice infected with S. pullorum” value (“bacteria counted … with S. pullorum” below) (S. pullorum CVCC533 [3]; Kidney, mean) was 3.299, the “bacteria counted … with S. pullorum” value (S. pullorum CVCC533 [3]; Liver, replicate 1) was 3.641 and the “bacteria counted … with S. pullorum” value (S. pullorum CVCC533 [3]; Liver, replicate 2) was 4.221. The “bacteria counted … with S. pullorum” value (S. pullorum CVCC533 [3]; Lung, mean) was 3.527, the “bacteria counted … with S. pullorum” value (S. pullorum CVCC533 [3]; Spleen, replicate 1) was 4.255 and the “bacteria counted … with S. pullorum” value (S. pullorum CVCC533 [3]; Spleen, replicate 2) was 4.222. For the same compound, the “bacteria counted … with S. pullorum” value (S. pullorum CVCC533 [3]; Spleen, replicate 3) was 3.905, the “Decrease of bacterial count in kidneys” value (S. pullorum CVCC533 [3]; [8]) was 40.20% and the “Decrease of bacterial count in livers” value (S. pullorum CVCC533 [3]; [8]) was 31.66%. The “Decrease of bacterial count in lungs” value (S. pullorum CVCC533 [3]; [8]) was 43.65%, the “Decrease of bacterial count in spleens” value (S. pullorum CVCC533 [3]; [8]) was 47.75% and the “Organ injury, histopathology” value (S. pullorum CVCC533 [4]) was “apparently less damage of liver, spleen, kidney and lung”.

polymyxin B [PMB] was tested, and the “levels of TNF-α in sera” value (E. coli 0111:B4 LPS; 2 h after treatment) was 99.8667, the “levels of TNF-α in sera” value (E. coli 0111:B4 LPS; 8 h after treatment) was 239.767 and the “survival of mice in E. coli lethal model” value (E. coli CVCC195 [5]; 0.125 μmol/kg, day 0) was 100. The “survival of mice in E. coli lethal model” value (E. coli CVCC195 [5]; 0.125 μmol/kg, day 1) was 80, the “survival of mice in E. coli lethal model” value (E. coli CVCC195 [5]; 0.125 μmol/kg, day 2) was 60 and the “survival of mice in E. coli lethal model” value (E. coli CVCC195 [5]; 0.125 μmol/kg, day 3) was 30. For the same compound, the “survival of mice in E. coli lethal model” value (E. coli CVCC195 [5]; 0.125 μmol/kg, day 4) was 30, the “survival of mice in E. coli lethal model” value (E. coli CVCC195 [5]; 0.125 μmol/kg, day 5) was 30 and the “survival of mice in E. coli lethal model” value (E. coli CVCC195 [5]; 0.125 μmol/kg, day 6) was 30. For the same compound, the “survival of mice in E. coli lethal model” value (E. coli CVCC195 [5]; 0.125 μmol/kg, day 7) was 30, the “Survival rate of mice” value (E. coli CVCC195 [5]; 0.25 μmol/kg i.p. at 0.5 h and 8 h, 7 d) was 100% and the “survival of mice in E. coli lethal model” value (E. coli CVCC195 [5]; 0.25 μmol/kg, day 0) was 100. The “survival of mice in E. coli lethal model” value (E. coli CVCC195 [5]; 0.25 μmol/kg, day 1) was 100, the “survival of mice in E. coli lethal model” value (E. coli CVCC195 [5]; 0.25 μmol/kg, day 2) was 100 and the “survival of mice in E. coli lethal model” value (E. coli CVCC195 [5]; 0.25 μmol/kg, day 3) was 100. For the same compound, the “survival of mice in E. coli lethal model” value (E. coli CVCC195 [5]; 0.25 μmol/kg, day 4) was 100, the “survival of mice in E. coli lethal model” value (E. coli CVCC195 [5]; 0.25 μmol/kg, day 5) was 100 and the “survival of mice in E. coli lethal model” value (E. coli CVCC195 [5]; 0.25 μmol/kg, day 6) was 100. For the same compound, the “survival of mice in E. coli lethal model” value (E. coli CVCC195 [5]; 0.25 μmol/kg, day 7) was 100, the “Organ injury, histopathology” value (E. coli CVCC195 [6]) was “apparently less damage of liver, spleen, kidney and lung” and the “bacteria counted in the organs of mice infected with E. coli” value (“bacteria counted … with E. coli” for short) (E. coli CVCC195 [7]; Kidney) was 3.851. For the same compound, the “bacteria counted … with E. coli” value (E. coli CVCC195 [7]; Liver) was 3.743, the “bacteria counted … with E. coli” value (E. coli CVCC195 [7]; Lung) was 3.796 and the “bacteria counted … with E. coli” value (E. coli CVCC195 [7]; Spleen) was 3.605.
